Measured values taken from patent US20070117743A1, “New antitumoral compounds” (priority 2003, published 2007).
Read-outs that look alike come from different tables or passages of the source. *1 amine or outer side, *2 acyl side, *3 side chain or, on linkers, in order; H or OH if unused. Where a SMILES comes first, the peptide text is derived from it. Bridges are numbered along the chain shown (N, C = ends). [ ]: non-standard residue; d: D form. The star is where a group is joined. X3 = CN(C)C(=NCCC[C@H](N[*:1])C(=O)[*:2])N(C)c1ccccc1; X2 = CN(C)C(=NCCC[C@H](N[*:1])C(=O)[*:2])N1CCCC1; X1 = CN(C)C(=NCCC[C@H](N[*:1])C(=O)[*:2])N(C)C; d(aIle) = CC[C@H](C)[C@@H](N)C(=O)O; d(aThr) = C[C@@H](O)[C@@H](N)C(=O)O; Hexanoyl(5-Me) = CC(C)CCCC(=O)*; Dhb = C/C=C(\N)C(=O)O

Key:
Type in all cases: cell-based, human
HT-29 = assay: SRB colorimetric assay of cell growth and viability, HT-29; conditions: 48 hours exposure; for GI50: read-out: GI50 HT-29; for CC50: read-out: LC50 HT-29
Description: (§1) The finality of this assay is to interrupt the growth of a “in vitro” tumor cell culture by means a continued exhibition of the cells to the sample to be testing.
(§2) This form of the assay employs 96 well cell culture microplates of 9 mm diameter (Faircloth, 1988; Mosmann, 1983). Most of the cell lines are obtained from American Type Culture Collection (ATCC) derived from different human cancer types.
(§3) Cells are maintained in RPMI 1640 10% FBS, supplemented with 0.1 g/l penicillin and 0.1 g/l streptomycin sulfate and then incubated at 37° C., 5% CO2 and 98% humidity. For the experiments, cells were harvested from subconfluent cultures using trypsin and resuspended in fresh medium before plating.
(§4) Cells are seeded in 96 well microtiter plates, at 5×10^3 cells per well in aliquots of 195 μL medium, and they are allowed to attach to the plate surface by growing in drug free medium for 18 hours. Afterward, samples are added in aliquots of 5 μL in a ranging from 10 to 10^−8 μg/mL, dissolved in DMSO:EtOH:PBS (0.5:0.5:99). After 48 hours exposure, the antitumor effect are measured by the SRB methodology: cells are fixed by adding 50 μL of cold 50% (wt/vol) trichloroacetic acid (TCA) and incubating for 60 minutes at 4° C. Plates are washed with deionized water and dried. One hundred μL of SRB solution (0.4% wt/vol in 1% acetic acid) is added to each microtiter well and incubated for 10 minutes at room temperature. Unbound SRB is removed by washing with 1% acetic acid. Plates are air dried and bound stain is solubilized with Tris buffer. Optical densities are read on a automated spectrophotometric plate reader at a single wavelength of 490 nm.
(§5) The values for mean+/− SD of data from triplicate wells are calculated. Some parameters for cellular responses can be calculated: GI=growth inhibition, TGI=total growth inhibition (cytostatic effect) and LC=cell killing (cytotoxic effect).

A-549 = assay: SRB colorimetric assay of cell growth and viability, A-549; conditions: 48 hours exposure; for GI50: read-out: GI50 A-549; for CC50: read-out: LC50 A-549
Description: as §1, §2, §3, §4, §5

LoVo = assay: SRB colorimetric assay of cell growth and viability, LoVo; conditions: 48 hours exposure; for CC50: read-out: LC50 LOVO
Description: as §1, §2, §3, §4, §5

HeLa-APL = assay: SRB colorimetric assay of cell growth and viability, HeLa-APL; conditions: 48 hours exposure; for CC50: read-out: LC50 HELA-APL
Description: as §1, §2, §3, §4, §5

DU-145 = assay: SRB colorimetric assay of cell growth and viability, DU-145; conditions: 48 hours exposure
Description: as §1, §2, §3, §4, §5

IGROV-1 = assay: SRB colorimetric assay of cell growth and viability, IGROV-1; conditions: 48 hours exposure
Description: as §1, §2, §3, §4, §5

PANC-1 = assay: SRB colorimetric assay of cell growth and viability, PANC-1; conditions: 48 hours exposure; for CC50: read-out: LC50 PANC-1
Description: as §1, §2, §3, §4, §5

HeLa = assay: SRB colorimetric assay of cell growth and viability, HeLa; conditions: 48 hours exposure; for CC50: read-out: LC50 HELA
Description: as §1, §2, §3, §4, §5

IGROV-ET = assay: SRB colorimetric assay of cell growth and viability, IGROV-ET; conditions: 48 hours exposure; for CC50: read-out: LC50 IGROV-ET
Description: as §1, §2, §3, §4, §5

LoVo-Dox = assay: SRB colorimetric assay of cell growth and viability, LoVo-Dox; conditions: 48 hours exposure; for CC50: read-out: LC50 LOVO-DOX
Description: as §1
A colorimetric type of assay, using sulforhodamine B (SRB) reaction has been adapted for a quantitative measurement of cell growth and viability [following the technique described by Philip Skehan, et al. (1990), New colorimetric cytotoxicity assay for anticancer drug screening, J. Natl. Cancer Inst., 82:1107-1112].
as §2, §3, §4, §5

K-562 = assay: SRB colorimetric assay of cell growth and viability, K-562; conditions: 48 hours exposure; for CC50: read-out: LC50 K-562
Description: as §1, §2, §3, §4, §5

SK-MEL-28 = assay: SRB colorimetric assay of cell growth and viability, SK-MEL-28; conditions: 48 hours exposure; for CC50: read-out: LC50 MEL-28
Description: as §1, §2, §3, §4, §5

| SMILES | TGI HT-29 (HT-29) [Molar] | GI50 (HT-29) [nM] | CC50 (HT-29) [nM] | TGI A-549 (A-549) [Molar] | GI50 (A-549) [nM] | CC50 (A-549) [µM] | GI50 (LoVo) [nM] | TGI LOVO (LoVo) [Molar] | CC50 (LoVo) [µM] | GI50 (HeLa-APL) [µM] | TGI HELA-APL (HeLa-APL) [Molar] | CC50 (HeLa-APL) [µM] | GI50 (DU-145) [µM] | LC50 (concentration causing 50% net cell kill) (DU-145) [µM] | TGI DU-145 (DU-145) [Molar] | GI50 (IGROV-1) [µM] | LC50 (concentration causing 50% net cell killing) (IGROV-1) [µM] | TGI IGROV (IGROV-1) [Molar] | TGI HT-29 (HT-29; SRB) [Molar] | TGI A-549 (A-549; SRB) [Molar] | other results |
| --- | --- | --- | --- | --- | --- | --- | --- | --- | --- | --- | --- | --- | --- | --- | --- | --- | --- | --- | --- | --- | --- |
| C/C=C1\NC(=O)[C@H](Cc2ccccc2)NC(=O)[C@@H](C(C)C)NC(=O)[C@@H]([C@@H](C)CC)NC(=O)[C@H](NC(=O)[C@H](NC(=O)[C@H](CCCN)NC(=O)[C@H]2CCCN2C(=O)[C@H](NC(=O)[C@@H](NC(=O)[C@@H](NC(=O)[C@H](NC(=O)c2ccc3c(c2)OCO3)C(C)C)[C@@H](C)O)C(C)C)C(C)C)[C@@H](C)CC)[C@@H](C)OC(=O)[C@H](C(C)C)NC1=O [Compound 23, [Pipe^14]-KF] | 3.30E−07 | 132 | 528 | 1.98E−06 | 661 | 4.62 | – | – | – | – | – | – | – | – | – | – | – | – | – | – | – |
| C/C=C1\NC(=O)[C@H](Cc2ccccc2)NC(=O)[C@@H](C(C)C)NC(=O)[C@@H]([C@@H](C)CC)NC(=O)[C@H](NC(=O)[C@H](NC(=O)[C@H](CCCN)NC(=O)[C@H]2CCCN2C(=O)[C@H](NC(=O)[C@@H](NC(=O)[C@@H](NC(=O)CNC(=O)CCCC(C)C)[C@@H](C)O)C(C)C)C(C)C)[C@@H](C)CC)[C@@H](C)OC(=O)[C@H](C(C)C)NC1=O [Compound 33, [Gly^13]-KF] | 6.96E−06 | 4510 | 6960 | 3.08E−06 | 982 | 6.96 | 3990 | 6.96E−06 | 6.96 | 6.96 | 6.96E−06 | 6.96 | 6.96 | 6.96 | 6.96E−06 | 6.96 | 6.96 | 6.96E−06 | – | – | GI50 (PANC-1): 385 nM; TGI PANC-1 (PANC-1): 1.70E−06 Molar; CC50 (PANC-1): 5.04 µM; GI50 (HeLa): 954 nM; TGI HELA (HeLa): 3.22E−06 Molar; CC50 (HeLa): 6.96 µM; GI50 (IGROV-ET): 5.27 µM; TGI IGROV-ET (IGROV-ET): 6.96E−06 Molar; CC50 (IGROV-ET): 6.96 µM; GI50 (LoVo-Dox): 4850 nM; TGI LOVO-DOX (LoVo-Dox): 6.96E−06 Molar; CC50 (LoVo-Dox): 6.96 µM; GI50 (K-562): 6.96 µM; TGI K-562 (K-562): 6.96E−06 Molar; CC50 (K-562): 6.96 µM; GI50 (SK-MEL-28): 6.32 µM; TGI MEL-28 (SK-MEL-28): 6.96E−06 Molar; CC50 (SK-MEL-28): 6.96 µM |
| C/C=C1\NC(=O)[C@H](Cc2ccccc2)NC(=O)[C@@H](C(C)C)NC(=O)[C@@H]([C@@H](C)CC)NC(=O)[C@H](NC(=O)[C@H](NC(=O)[C@H](CCCN)NC(=O)[C@H]2CCCN2C(=O)[C@H](NC(=O)[C@@H](NC(=O)[C@@H](NC(=O)[C@@H](C)NC(=O)CCCC(C)C)[C@@H](C)O)C(C)C)C(C)C)[C@@H](C)CC)[C@@H](C)OC(=O)[C@H](C(C)C)NC1=O [Compound 34, [D-Ala^13]-KF] | 2.32E−06 | 1250 | 4300 | 3.20E−06 | 1980 | 5.17 | 904 | 1.77E−06 | 2.98 | 1.59 | 2.63E−06 | 4.34 | 2.21 | 4.79 | 3.26E−06 | 1.41 | 4.03 | 2.38E−06 | – | – | GI50 (PANC-1): 1280 nM; TGI PANC-1 (PANC-1): 2.58E−06 Molar; CC50 (PANC-1): 5.21 µM; GI50 (HeLa): 1460 nM; TGI HELA (HeLa): 2.43E−06 Molar; CC50 (HeLa): 4.06 µM; GI50 (IGROV-ET): 1.58 µM; TGI IGROV-ET (IGROV-ET): 2.56E−06 Molar; CC50 (IGROV-ET): 4.14 µM; GI50 (LoVo-Dox): 350 nM; TGI LOVO-DOX (LoVo-Dox): 9.73E−07 Molar; CC50 (LoVo-Dox): 2.48 µM; GI50 (K-562): 1.34 µM; TGI K-562 (K-562): 2.66E−06 Molar; CC50 (K-562): 5.25 µM; GI50 (SK-MEL-28): 1.81 µM; TGI MEL-28 (SK-MEL-28): 3.01E−06 Molar; CC50 (SK-MEL-28): 5 µM |
| C/C=C1\NC(=O)[C@H](Cc2ccccc2)NC(=O)[C@@H](C(C)C)NC(=O)[C@@H]([C@@H](C)CC)NC(=O)[C@H](NC(=O)[C@H](NC(=O)[C@H](CCCN=C(N(C)C)N(C)C)NC(=O)[C@H]2CCCN2C(=O)[C@H](NC(=O)[C@@H](NC(=O)[C@@H](NC(=O)[C@H](NC(=O)CCCC(C)C)C(C)C)[C@@H](C)O)C(C)C)C(C)C)[C@@H](C)CC)[C@@H](C)OC(=O)[C@H](C(C)C)NC1=O [Compound 89, [N(Me)2,N′(Me)2-Arg^8]-Kahalalide F] ({Hexanoyl(5-Me)}-[dV]TV[dV][dP][X1][d(aIle)][d(aThr)][d(aIle)][dV]F[Dhb]V; ester 8-C) | – | – | – | – | – | – | – | – | – | – | – | – | – | – | – | – | – | – | 3.17E−07 | 4.44E−07 | GI50 (HT-29; SRB): 63.5 nM; CC50 (HT-29; SRB): 571 nM; GI50 (A-549; SRB): 317 nM; CC50 (A-549; SRB): 0.635 µM |
| C/C=C1\NC(=O)[C@H](Cc2ccccc2)NC(=O)[C@@H](C(C)C)NC(=O)[C@@H]([C@@H](C)CC)NC(=O)[C@H](NC(=O)[C@H](NC(=O)[C@H](CCCN=C(N(C)C)N(C)c2ccccc2)NC(=O)[C@H]2CCCN2C(=O)[C@H](NC(=O)[C@@H](NC(=O)[C@@H](NC(=O)[C@H](NC(=O)CCCC(C)C)C(C)C)[C@@H](C)O)C(C)C)C(C)C)[C@@H](C)CC)[C@@H](C)OC(=O)[C@H](C(C)C)NC1=O [Compound 90, [N(Me,Ph),N′(ME)2-Arg^8]-Kahalalide F] ({Hexanoyl(5-Me)}-[dV]TV[dV][dP][X3][d(aIle)][d(aThr)][d(aIle)][dV]F[Dhb]V; ester 8-C) | – | – | – | – | – | – | – | – | – | – | – | – | – | – | – | – | – | – | 3.05E−07 | 4.27E−07 | – |
| C/C=C1\NC(=O)[C@H](Cc2ccccc2)NC(=O)[C@@H](C(C)C)NC(=O)[C@@H]([C@@H](C)CC)NC(=O)[C@H](NC(=O)[C@H](NC(=O)[C@H](CCCN=C(N(C)C)N2CCCC2)NC(=O)[C@H]2CCCN2C(=O)[C@H](NC(=O)[C@@H](NC(=O)[C@@H](NC(=O)[C@H](NC(=O)CCCC(C)C)C(C)C)[C@@H](C)O)C(C)C)C(C)C)[C@@H](C)CC)[C@@H](C)OC(=O)[C@H](C(C)C)NC1=O [Compound 91, [N(CH2)4,N′(Me)2-Arg^8]-Kahalalide F] ({Hexanoyl(5-Me)}-[dV]TV[dV][dP][X2][d(aIle)][d(aThr)][d(aIle)][dV]F[Dhb]V; ester 8-C) | – | – | – | – | – | – | – | – | – | – | – | – | – | – | – | – | – | – | 3.12E−07 | 4.37E−07 | GI50 (HT-29; SRB): 62.4 nM; CC50 (HT-29; SRB): 562 nM; GI50 (A-549; SRB): 312 nM; CC50 (A-549; SRB): 0.624 µM |
